Patent publication US10513521B2, “Compositions and methods for inhibiting BMP” (The Brigham and Women's Hospital, Inc., priority 2014, dated 2019)
Several values for one entry are separate records, joined by “and”; a condition that tells them apart may be missing. Equal values may be shown once.

Key:
[1] = target: T1, ALK1 (Bos taurus, UniProt A4FUX2); assay: In-cell Western ALK1 assay (BAOEC cells, BMP9 as agonist); type: cell-based, Bovine; details: read-out: BMP9 ICW
T1 construct: The BAOEC cell line was employed for the measurement of ALK1 activity using BMP9 as the agonist; host or cells: BAOEC (bovine aortic endothelial cells)
T1 sequence (A4FUX2 23-503): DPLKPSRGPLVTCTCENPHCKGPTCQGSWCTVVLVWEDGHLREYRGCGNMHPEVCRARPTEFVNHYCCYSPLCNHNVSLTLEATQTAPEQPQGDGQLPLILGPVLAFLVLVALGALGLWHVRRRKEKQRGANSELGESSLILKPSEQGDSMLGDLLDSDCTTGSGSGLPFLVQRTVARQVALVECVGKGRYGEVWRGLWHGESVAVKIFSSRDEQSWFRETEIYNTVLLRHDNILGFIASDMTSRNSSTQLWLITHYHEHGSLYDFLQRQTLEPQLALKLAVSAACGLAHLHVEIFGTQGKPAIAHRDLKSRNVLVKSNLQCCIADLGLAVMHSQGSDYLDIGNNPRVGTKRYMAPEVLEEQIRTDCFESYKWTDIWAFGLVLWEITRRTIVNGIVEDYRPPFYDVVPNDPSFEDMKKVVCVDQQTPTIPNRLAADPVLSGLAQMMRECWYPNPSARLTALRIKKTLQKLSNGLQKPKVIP
Description: 3. In-Cell Western ALK1 and ALK2 Assays in 384-Well Plate Format.
We also optimized cell-based In-cell Western assays for measurements of ALK1 and ALK2 activities that were used to determine compound activities in these two kinases. The cell lines and agonists used were same as described in above cell-based HTRF ALK1 and ALK2 assays. The initial cell plating and compound treatment were also same. The main difference is the detection of phosphorylation status of SMAD1. In t-cell Western assay, the cells were fixed and phosphorylation status of SMAD1 was detected by the ELISA instead of using the HTRF assay kit in above assay.
C2C12 cells and RPMI 1640 medium were obtained from ATCC (Manassas, Va.) and Bovine Aortic endothelial Cells (BAOEC) and epithelial defined growth medium were purchased from Genlantis (San Deigo, Calif.). HyClone Fetal Bovine Serum was obtained from GE healthcare life sciences (Logan, Utah). BMP6 and BMP9 were purchased from R&D System (R&D). Anti-P-SMAD 1/5/8 rabbit mAb and anti-rabbit IgG, HRP-Linked antibody were purchased from Cell Signaling Technology (Danvers, Mass.). BioFX Chemiluminescent Ultra-Sensitive HRP Microwell Substrate ECL Reagent was obtained from SurModics (Edina, Minn.). The compound plates and the white solid MB assay plates were from Greiner Bio-one (Monroe, N.C.).
Similarly as described in above HTRF cell-based assay, this assay was performed in 384 well plate format. C2C12 were grown in T225 flasks were sterilely washed with 1×PBS pre-starved with medium containing 0.1% FBS for 20 hours. Pre-starved cells were then plated in 384 well plate in the starvation medium (containing in 0.1% FBS). After 4 hours, compound dilutions in DMSO were added to the assay plate and incubated for 30 minutes. The assay plate was then added with BMP6 for C2C12 cells or BMP9 for BAOEC cells and incubated for 30 minutes.
Cells were fixed with 50 ul ice-cold methanol and incubated for 15 min after removing the supernatant. The methanol was removed and filled with 0.5% glutaraldehyde and incubated at room temperature for 15 min. The cells were washed in the plate washer with PBS and blocked with 2% BSA in PBS for 1 h at room temperature on the rotator. After removing the blocking reagent, the cells were incubated with the anti-p-SMAD1 antibody in 2% BSA in PBS for overnight at 4° C. on rotator. The cells were washed with PBS in the plate washer and incubated with HRP conjugated second antibody in 2% BSA in PBS for 1 hour at room temperature. After a cell wash with PBS, ECL detection reagent was added and the plate was read in the luminesce mode in the ViewLux plate reader.

[2] = target: T2, ALK2 (Homo sapiens, UniProt Q04771); assay: TR-FRET enzymatic ALK kinase assay, ALK2
T2 sequence (Q04771 21-509): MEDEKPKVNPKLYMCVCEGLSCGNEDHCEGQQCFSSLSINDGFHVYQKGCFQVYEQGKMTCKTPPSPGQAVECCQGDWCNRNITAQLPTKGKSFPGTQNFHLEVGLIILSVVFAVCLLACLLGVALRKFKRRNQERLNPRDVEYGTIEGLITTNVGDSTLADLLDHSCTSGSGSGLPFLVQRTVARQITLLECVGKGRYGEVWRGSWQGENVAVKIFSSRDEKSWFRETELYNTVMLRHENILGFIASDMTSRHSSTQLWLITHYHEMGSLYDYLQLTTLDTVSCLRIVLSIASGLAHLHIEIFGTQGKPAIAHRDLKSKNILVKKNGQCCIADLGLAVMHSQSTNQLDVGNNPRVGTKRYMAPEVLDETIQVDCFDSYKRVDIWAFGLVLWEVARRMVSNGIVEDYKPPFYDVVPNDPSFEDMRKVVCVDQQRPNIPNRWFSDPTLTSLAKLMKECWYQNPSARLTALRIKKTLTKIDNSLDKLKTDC
Description: (§1) Briefly, the ALKs enzymatic assay was initiated by dispense 2.5 μl enzyme in 1× kinase reaction buffer. The assay plate was then added with compounds followed by incubation at room temperature for 10 minutes. Then 2.5 μl/well substrate was added.

[3] = target: ALK3 (Homo sapiens, UniProt P36894); assay: TR-FRET enzymatic ALK kinase assay, ALK3
Description: as §1

[4] = target: T3, ALK4 (Homo sapiens, UniProt P36896); assay: TR-FRET enzymatic ALK kinase assay, ALK4
T3 sequence (P36896 24-505): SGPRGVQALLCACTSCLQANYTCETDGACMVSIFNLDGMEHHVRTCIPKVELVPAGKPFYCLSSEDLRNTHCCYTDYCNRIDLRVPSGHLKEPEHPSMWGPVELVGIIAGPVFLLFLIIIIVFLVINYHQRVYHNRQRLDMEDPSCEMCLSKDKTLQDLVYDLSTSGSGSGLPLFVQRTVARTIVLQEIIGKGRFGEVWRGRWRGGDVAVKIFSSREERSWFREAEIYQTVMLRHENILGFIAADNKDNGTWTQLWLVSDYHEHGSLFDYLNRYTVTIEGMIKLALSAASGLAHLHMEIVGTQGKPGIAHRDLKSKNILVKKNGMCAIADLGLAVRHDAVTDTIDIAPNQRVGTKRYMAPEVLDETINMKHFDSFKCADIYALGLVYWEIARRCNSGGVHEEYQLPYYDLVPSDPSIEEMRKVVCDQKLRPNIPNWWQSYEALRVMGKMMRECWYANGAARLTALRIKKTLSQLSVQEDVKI
Description: as §1

[5] = target: ALK6 (Homo sapiens, UniProt O00238); assay: TR-FRET enzymatic ALK kinase assay, ALK6
Chain of ALK6 (O00238 14-502): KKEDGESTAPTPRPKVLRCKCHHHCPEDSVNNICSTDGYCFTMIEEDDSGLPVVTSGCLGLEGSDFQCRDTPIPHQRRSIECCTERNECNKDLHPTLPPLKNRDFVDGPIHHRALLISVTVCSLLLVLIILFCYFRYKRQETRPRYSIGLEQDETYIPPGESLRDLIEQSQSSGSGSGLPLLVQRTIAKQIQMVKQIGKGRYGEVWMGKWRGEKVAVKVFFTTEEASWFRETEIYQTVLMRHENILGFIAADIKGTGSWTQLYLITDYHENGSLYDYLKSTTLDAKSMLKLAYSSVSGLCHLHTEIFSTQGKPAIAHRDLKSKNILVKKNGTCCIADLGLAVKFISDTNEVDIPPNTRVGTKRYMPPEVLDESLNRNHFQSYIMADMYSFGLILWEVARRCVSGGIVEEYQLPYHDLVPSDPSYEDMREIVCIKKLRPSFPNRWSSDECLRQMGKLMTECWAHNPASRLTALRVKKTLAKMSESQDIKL
Description: as §1

Chain of ALK3 (P36894 24-532): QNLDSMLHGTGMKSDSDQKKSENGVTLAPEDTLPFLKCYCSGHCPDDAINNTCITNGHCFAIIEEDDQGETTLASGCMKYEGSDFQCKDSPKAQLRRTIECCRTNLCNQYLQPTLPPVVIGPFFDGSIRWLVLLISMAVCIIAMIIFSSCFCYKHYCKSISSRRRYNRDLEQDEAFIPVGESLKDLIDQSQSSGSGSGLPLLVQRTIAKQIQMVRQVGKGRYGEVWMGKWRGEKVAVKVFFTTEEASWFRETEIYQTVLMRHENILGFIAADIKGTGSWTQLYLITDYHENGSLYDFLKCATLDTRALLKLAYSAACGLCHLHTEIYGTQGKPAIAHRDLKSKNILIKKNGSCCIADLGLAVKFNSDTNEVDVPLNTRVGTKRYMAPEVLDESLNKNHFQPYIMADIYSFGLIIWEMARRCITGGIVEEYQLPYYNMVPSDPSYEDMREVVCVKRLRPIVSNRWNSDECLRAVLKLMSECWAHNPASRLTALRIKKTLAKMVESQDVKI

IC50 [1] | IC50 [2] [µM] | IC50 [3] [µM] | IC50 [4] [µM] | IC50 [5] [µM] | Compound
2.4 µM | 0.049 | 3.4 | 8.5 | 8.7 | C[C@@H]1CNC[C@H](C)N1c1ccc(-c2cnc3c(-c4cccc(C[S+](C)(=O)[O-])c4)cnn3c2)cc1 [Compound 117, 6-(4-((2R,6S)-2,6-dimethylpiperazin-1-yl)phenyl)-3-(3-((methylsulfonyl)methyl)phenyl)pyrazolo[1,5-a]pyrimidine]
1.8 µM | 0.017 | 0.97 | 6.5 | > 10 | C[C@@H]1CNC[C@H](C)N1c1ccc(-c2cnc3c(-c4cccc([S+](=O)([O-])C5CC5)c4)cnn3c2)cc1 [Compound 111, 3-(3-(cyclopropylsulfonyl)phenyl)-6-(4-((2R,6S)-2,6-dimethylpiperazin-1-yl)phenyl)pyrazolo[1,5-a]pyrimidine]
1.1 µM and 0.36 µM and 0.86 µM | 0.014 | 0.51 | 4.8 | 7.4 | CC[S+](=O)([O-])c1cccc(-c2cnn3cc(-c4ccc(N5[C@H](C)CNC[C@@H]5C)cc4)cnc23)c1 [Compound 104, 6-(4-((2R,6S)-2,6-dimethylpiperazin-1-yl)phenyl)-3-(3-(ethylsulfonyl)phenyl)pyrazolo[1,5-a]pyrimidine]

Compound | IC50 [1] | IC50 [2] [µM] | IC50 [3] [µM] | IC50 [4] [µM] | IC50 [5] [µM]
C[C@@H]1CNC[C@H](C)N1c1ccc(-c2cnc3c(-c4cccc(S(C)(=O)=O)c4)cnn3c2)cc1 [Compound 82, 6-(4-((2R,6S)-2,6-dimethylpiperazin-1-yl)phenyl)-3-(3-(methylsulfonyl)phenyl)pyrazolo[1,5-a]pyrimidine] | 1.5 µM (2×) and 1 µM and 1.3 µM and 1.8 µM and 360 nM and 960 nM and 2 µM | 0.012 | 0.54 | 3.2 | 7.9
